The record followed here is patent publication US4079177A, “Clavulanic acid carbamates” (Beecham Group Limited, priority 1975, dated 1978).

The subject of one data set is Proteus mirabilis C889. The data set is described as follows: Minimum inhibitory concentration (mic), synergistical activity against β-lactamase producing organisms. The format is cell-based. The conditions noted are these: substance alone. As to the method: (§1) The minimum inhibitory concentrations (mic) of ampicillin N-methylcarbamoylclavulanic acid, and mixtures of ampicillin and N-methylcarbamoylclavulanic acid were determined against 4 β-lactamase producing organisms.
(§2) MIC's (in μg/ml) of Ampicillin and N-methylcarbamoylclavulanic acid
(§3) combinations thereof against 4 β-lactamase producing organisms.

The next data set has as its system Klebsiella aerogenes E70. Described as above. The format is cell-based. The conditions noted are these: substance alone. The procedure:
as §1, §2, §3

The subject of a further data set is Escherichia coli JT4. The data set is described as above. The format is cell-based. Particulars: substance alone. The procedure:
as §1, §2, §3

The test system of data set [1] is Staphylococcus aureus Russell. Described as above. Particulars: substance alone. The format is cell-based. The procedure:
as §1, §2, §3

Data set [2] in a line: Stability of n.m.r. solution (D2O). The format is physicochemical. An excerpt: n.m.r. (D2 O) 2.88 (3H,s, NCH3) 3.20 (1H,d, J 18Hz, 6β-CH) 3.70 (1H,dd, J 18Hz J' 3Hz 6α-CH) 5.7δ (1H,d, J 3Hz, 5-CH); the other protons were obscured by the water peak.

A value given as a limit tells only on which side of the number the result lay.

The MIC is the lowest concentration found to suppress growth. For `CC1(C)S[C@@H]2[C@H](NC(=O)[C@H](N)c3ccccc3)C(=O)N2[C@H]1C(=O)O` [Ampicillin, ampicillin, reference compound], the MIC with Proteus mirabilis C889 is > 500 µg/mL; with Klebsiella aerogenes E70, 250 µg/mL; with Escherichia coli JT4, > 5000 µg/mL; in data set [1], 500 µg/mL.
In the same order, the values of `CNC(=O)OC/C=C1\O[C@@H]2CC(=O)N2[C@H]1C(=O)O` [N-methylcarbamoylclavulanic acid] are > 500 µg/mL, 500 µg/mL, > 500 µg/mL and 250 µg/mL.
On to `CNC(=O)OC/C=C1\O[C@@H]2CC(=O)N2[C@H]1C(=O)O` [Sodium N-methylcarbamoylclavulanate], for which the “degradation of the n.m.r. solution” value in data set [2] is reported as “signs of rapid degradation”.
